Read-outs that look alike come from different tables or passages of the source.
Tests used:
[1] = system: MKN45 cells; assay: MKN45 cell proliferation assay (Cell-Titer-Glo, 120 h); assay type: cell-based; settings: for EC50: Homo sapiens, MKN-45, 120 h, Cell-Titer-Glo, read-out: MKN45 Cell Prolif. 120 hr (EC50); for MKN45 Cell Prolif. 120 hr (Ymin-Obs): minimal percent of DMSO control observed in the concentrations tested
How it was run: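 Cells seeded at 400/well onto pre-printed 10-point half-log dilutions (top 1 or 10 uM, 0.1% DMSO final), in triplicate, and grown 120 h at 37 C. Viability by Cell-Titer-Glo luminescence, blank-subtracted and normalised to DMSO; EC50 from four-parameter logistic fit, with observed minimal % of control recorded as Ymin-obs.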

[2] = target: T1, WEE1 (Homo sapiens, UniProt P30291+Q96SW2); assay: WEE1-ePL degradation assay (LentiX-WEE1-ePL-GSPT1-ND cells, InCELL Hunter luminescence, 4 h); assay type: cell-based; settings: 293T-LentiX WEE1-ePL cells; for DC50: read-out: 293T-LentiX WEE1-ePL Degradation 4 hr (EC50)
T1 construct: C-terminal ePL-tagged (DiscoverX, Fremont, CA) full-length WEE1 expression construct; expressed in transfected cells; host or cells: LentiX-HEK293T (Invitrogen), lentiviral transduction; co-expressing GSPT1-GN (G576N, lacking the first 158 amino acids)
How it was run: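 Degradation EC50 was fitted by a four-parameter logistic model, with the upper limit taken from DMSO wells. Luminescence was read with InCELL Hunter reagent after 30 min at room temperature, following a 4 h, 37° C exposure of 2500 cells/well. Cells were LentiX-HEK293T carrying ePL-tagged full-length WEE1, dosed in 10 points (3-fold) from 1 or 10 uM.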

[3] = lower limit of the fit (0 = luciferase inhibitor, Ymax = DMSO control)

SMILES	EC50 ([1]; growth inhibition) [nM]	293T-LentiX WEE1-ePL Degradation 4 hr (Ymin) [2, 3]	DC50 [2] [nM]	EC50 [1] [nM]	293T-LentiX WEE1-ePL Degradation 4 hr (Ymin) ([2]; lower limit of the fit (Ymin=0 luciferase inhibitor, Ymax DMSO control))	MKN45 Cell Prolif. 120 hr (Ymin-Obs) [1]
O=C1CCC(N2Cc3cc(O[C@H]4CCN(Cc5ccc6nc(N7[C@@H]8CC[C@H]7COC8)ncc6c5)C4)ccc3C2=O)C(=O)N1 (stereo partly drawn) [3-(5-{[(3S)-1-({2-[(1R,5S)-3-oxa-8-azabicyclo[3.2.1]octan-8-yl]quinazolin-6-yl}methyl)pyrrolidin-3-yl]oxy}-1-oxo-2,3-dihydro-1H-isoindol-2-yl)piperidine-2,6-dione]	24.9	33	101			8.88
O=C1CCC(N2Cc3cc(O[C@H]4CCN(Cc5ccc6nc([C@H]7CC[C@@H](O)C7)ccc6c5)C4)ccc3C2=O)C(=O)N1 (stereo partly drawn) [3-(5-{[(3S)-1-({2-[(1S,3R)-3-hydroxycyclopentyl]quinolin-6-yl}methyl)pyrrolidin-3-yl]oxy}-1-oxo-2,3-dihydro-1H-isoindol-2-yl)piperidine-2,6-dione]	2.66	31	2.99			7.68
O=C1CCC(N2Cc3cc(O[C@H]4CCN(Cc5ccc6cccnc6c5)C4)ccc3C2=O)C(=O)N1 (stereo partly drawn) [3-(1-oxo-5-{[(3S)-1-[(quinolin-7-yl)methyl]pyrrolidin-3-yl]oxy}-2,3-dihydro-1H-isoindol-2-yl)piperidine-2,6-dione]	> 10000	57	30.1			76.22
[2H]c1nc2ccc(CN3CCC(Oc4ccc5c(c4)CN(C4CCC(=O)NC4=O)C5=O)C3)cc2cc1F [3-(5-{[(3S)-1-{[3-fluoro(2-^2H)quinolin-6-yl]methyl}pyrrolidin-3-yl]oxy}-1-oxo-2,3-dihydro-1H-isoindol-2-yl)piperidine-2,6-dione]	94.9	35	3.57			21.68
Cc1ncc2ccc(CN3CC[C@H](Oc4ccc5c(c4)CN(C4CCC(=O)NC4=O)C5=O)C3)cc2n1 (stereo partly drawn) [3-(5-{[(3S)-1-[(2-methylquinazolin-7-yl)methyl]pyrrolidin-3-yl]oxy}-1-oxo-2,3-dihydro-1H-isoindol-2-yl)piperidine-2,6-dione]	365	35.02	65.5			32.41
O=C1CCC(N2C(=O)c3ccc(O[C@H]4CCN(Cc5cnc6ccccc6c5)C4)cc3C2=O)C(=O)N1 (stereo partly drawn) [2-(2,6-dioxopiperidin-3-yl)-5-{[(3S)-1-[(quinolin-3-yl)methyl]pyrrolidin-3-yl]oxy}-2,3-dihydro-1H-isoindole-1,3-dione]	621	30.205	32.9			15.39
O=C1CCC(N2Cc3cc(O[C@H]4CCN(Cc5ccc6nc(N7CC8(CCOCC8)C7)ncc6c5)C4)ccc3C2=O)C(=O)N1 (stereo partly drawn) [3-(5-{[(3S)-1-[(2-{7-oxa-2-azaspiro[3.5]nonan-2-yl}quinazolin-6-yl)methyl]pyrrolidin-3-yl]oxy}-1-oxo-2,3-dihydro-1H-isoindol-2-yl)piperidine-2,6-dione]	10.2	35	16.6			9.958
O=C1CCC(N2Cc3cc(O[C@@H]4CN(Cc5ccc6nc([C@H]7CCOC7)ccc6c5)C[C@H]4F)ccc3C2=O)C(=O)N1 (stereo partly drawn) [3-(5-{[(3R,4R)-4-fluoro-1-({2-[(3R)-oxolan-3-yl]quinolin-6-yl}methyl)pyrrolidin-3-yl]oxy}-1-oxo-2,3-dihydro-1H-isoindol-2-yl)piperidine-2,6-dione]			8.43	18.7	34.71	20.39
O=C1CCC(N2Cc3cc(O[C@H]4CCN(Cc5ccc6nc(N7C[C@H]8C[C@@H](C7)O8)ccc6c5)C4)ccc3C2=O)C(=O)N1 (stereo partly drawn) [3-(5-{[(3S)-1-({2-[(1R,5S)-6-oxa-3-azabicyclo[3.1.1]heptan-3-yl]quinolin-6-yl}methyl)pyrrolidin-3-yl]oxy}-1-oxo-2,3-dihydro-1H-isoindol-2-yl)piperidine-2,6-dione]	3.19	38	1.98			9.79

The remaining compounds from weak to strong by DC50 [2], led by results:

EC50 ([1]; growth inhibition) [nM]	293T-LentiX WEE1-ePL Degradation 4 hr (Ymin) [2, 3]	DC50 [2] [nM]	EC50 [1] [nM]	293T-LentiX WEE1-ePL Degradation 4 hr (Ymin) ([2]; lower limit of the fit (Ymin=0 luciferase inhibitor, Ymax DMSO control))	SMILES	MKN45 Cell Prolif. 120 hr (Ymin-Obs) [1]
16.5	32	28.7			CO[C@@H]1CCC[C@H](c2ccc3cc(CN4CC[C@H](Oc5ccc6c(c5)CN(C5CCC(=O)NC5=O)C6=O)C4)ccc3n2)C1 (stereo partly drawn) [3-(5-{[(3S)-1-({2-[(1S,3R)-3-methoxycyclohexyl]quinolin-6-yl}methyl)pyrrolidin-3-yl]oxy}-1-oxo-2,3-dihydro-1H-isoindol-2-yl)piperidine-2,6-dione]	9.143
955	35.675	25.9			Cc1cc(CN2CC[C@H](Oc3ccc4c(c3)CN(C3CCC(=O)NC3=O)C4=O)C2)cnc1C (stereo partly drawn) [3-(5-{[(3S)-1-[(5,6-dimethylpyridin-3-yl)methyl]pyrrolidin-3-yl]oxy}-1-oxo-2,3-dihydro-1H-isoindol-2-yl)piperidine-2,6-dione]	43.03
6.12	33	6.75			O=C1CC[C@@H](N2Cc3cc(O[C@H]4CCN(Cc5ccc6nc(C7CCOCC7)ccc6c5)C4)ccc3C2=O)C(=O)N1 [(3R)-3-(5-{[(3S)-1-{[2-(oxan-4-yl)quinolin-6-yl]methyl}pyrrolidin-3-yl]oxy}-1-oxo-2,3-dihydro-1H-isoindol-2-yl)piperidine-2,6-dione]	9.677
44	33	4.18			N#Cc1cnc2ccc(CN3CC[C@H](Oc4ccc5c(c4)CN(C4CCC(=O)NC4=O)C5=O)C3)cc2c1 (stereo partly drawn) [6-{[(3S)-3-{[2-(2,6-dioxopiperidin-3-yl)-1-oxo-2,3-dihydro-1H-isoindol-5-yl]oxy}pyrrolidin-1-yl]methyl}quinoline-3-carbonitrile]	12.18
14.4	33	3.38			O=C1CCC(N2Cc3cc(O[C@H]4CCN(Cc5ccc6ncc(C(F)F)cc6c5)C4)ccc3C2=O)C(=O)N1 (stereo partly drawn) [3-(5-{[(3S)-1-{[3-(difluoromethyl)quinolin-6-yl]methyl}pyrrolidin-3-yl]oxy}-1-oxo-2,3-dihydro-1H-isoindol-2-yl)piperidine-2,6-dione]	11.04
6.71	37	3.01			O=C1CCC(N2Cc3cc(O[C@H]4CCN(Cc5ccc6nc(N7CCC7)ccc6c5)C4)ccc3C2=O)C(=O)N1 (stereo partly drawn) [3-(5-{[(3S)-1-{[2-(azetidin-1-yl)quinolin-6-yl]methyl}pyrrolidin-3-yl]oxy}-1-oxo-2,3-dihydro-1H-isoindol-2-yl)piperidine-2,6-dione]	10.91
3.2	25.35	1.04			Cc1ccc2cc(CN3CC[C@H](Oc4ccc5c(c4)CN(C4CCC(=O)NC4=O)C5=O)C3)cc(F)c2n1 (stereo partly drawn) [3-(5-{[(3S)-1-[(8-fluoro-2-methylquinolin-6-yl)methyl]pyrrolidin-3-yl]oxy}-1-oxo-2,3-dihydro-1H-isoindol-2-yl)piperidine-2,6-dione]	7.555

Reference: patent US20240067632A1, “WEE1 Degrading Compounds and Uses Thereof” (Bristol-Myers Squibb Company, priority 2022, published 2024)
